Values after ≈ are worked out from the molar mass of the structure shown. Read-outs that look alike come from different tables or passages of the source. Where a SMILES comes first, the peptide text is derived from it. [ ]: non-standard residue; d: D form. ξ: configuration not given here. Oic = O=C(O)[C@@H]1C[C@@H]2CCCC[C@@H]2N1; Tic = O=C(O)[C@@H]1Cc2ccccc2CN1; ξOic = O=C(O)C1CC2CCCCC2N1; GABA = NCCCC(=O)O
Assays:
[1] = test system: Mycobacterium ranae (ATCC 110)
[2] = test system: Bacillus subtillis (ATCC 43223); conditions: for p(MIC) Bacillus Subtillis: -log(MIC)
[3] = test system: Salmonella typhimurium (ATCC 13311); conditions: for p(MIC) Salmonella typhimurium: -log(MIC)
[4] = test system: Staphylococcus aureus Methicillin/Gentamicin/Tetracycline Resistant (ATCC 33592); conditions: for p(MIC) Staphylococcus aureus ME/GM/TC resistant: -log(MIC); for Actual Bioactivity: p(MIC) used in Staphylococcus aureus QSAR model
[5] = in vitro MIC, tested at 100, 30, 10, 3, 1, 0.3 and 0.1 μM in 1% DMSO

`CC(=O)NCC(=O)N[C@@H](Cc1ccccc1)C(=O)NCC(=O)N1C(C(=O)NCC(=O)N[C@@H](CCCCN)C(=O)NCC(=O)N2C(C(=O)NCC(=O)N[C@@H](Cc3ccccc3)C(=O)NCC(=O)N3C(C(=O)NCC(=O)N[C@@H](CCCCN)C(=O)NCC(=O)N[C@@H](CCCCN)C(=O)N[C@@H](CCCCN)C(=O)N[C@@H](CCCCN)C(=O)N[C@@H](CCCCN)C(N)=O)CC4CCCCC43)CC3CCCCC32)CC2CCCCC21` (stereo partly shown) [FKAB-1Gf1, Ac-GF-G-Oic-GK-G-Oic-GF-G-Oic-GK-G-KKKK-CONH2] (Ac-GFG[ξOic]GKG[ξOic]GFG[ξOic]GKGKKKK-NH2) was tested, and the “% hemolysis 100/25 μM (first value)” value (red blood cells) was 3.30%/, the “% hemolysis 100/25 μM (second value)” value (red blood cells) was 3.3% and the “MIC Mycobacterium ranae” value ([1]; ATCC 110) was 100.00 µM (≈ 203 µg/mL). For the same compound, the “MIC Bacillus Subtillis” value ([2]; ATCC 43223) was 30.00 µM (≈ 61 µg/mL).
In the case of `CC(=O)NCC(=O)N[C@@H](Cc1ccccc1)C(=O)N1[C@H](C(=O)NCC(=O)N[C@@H](CCCCN)C(=O)N2[C@H](C(=O)NCC(=O)N[C@@H](Cc3ccccc3)C(=O)N3[C@H](C(=O)NCC(=O)N[C@@H](CCCCN)C(=O)N[C@@H](CCCCN)C(=O)N[C@@H](CCCCN)C(=O)N[C@@H](CCCCN)C(=O)N[C@@H](CCCCN)C(N)=O)C[C@@H]4CCCC[C@@H]43)C[C@@H]3CCCC[C@@H]32)C[C@@H]2CCCC[C@@H]21` [FKAB-1Gf, Ac-GF-Oic-GK-Oic-GF-Oic-GKKKKK-CONH2] (Ac-GF[Oic]GK[Oic]GF[Oic]GKKKKK-NH2), the “p(MIC) Salmonella typhimurium” value [3] is reported as 4.00, the “MIC Salmonella typhimurium” value ([3]; ATCC 13311) is reported as 100 µM (≈ 180 µg/mL) and the “Minimum Inhibitory Concentration Salmonella typhimurium” value ([3]; in vitro MIC) is reported as 180 µg/mL. For the same compound, the “Minimum Inhibitory Concentration Salmonella typhimurium” value [3, 5] was 100 µM, the “% hemolysis 100/25 μM (first value)” value (red blood cells) was 5.9%/ and the “% hemolysis 100/25 μM (first value)” value (red blood cells; 100 μM) was 5.9%. For the same compound, the “% hemolysis 100/25 μM (second value)” value (red blood cells) was 3.2%, the “p(MIC) Staphylococcus aureus ME/GM/TC resistant” value [4] was 0.00 and the “Actual Bioactivity” value [4] was 0.000. For the same compound, the “Actual Bioactivity” value [1] was 4.000, the “Minimum Inhibitory Concentration Mycobacterium ranae” value [1] was 100 μM/180 μg/mL and the “MIC Mycobacterium ranae” value ([1]; ATCC 110) was 100.00 µM (≈ 180 µg/mL). The “p(MIC) Bacillus Subtillis” value [2] was 5.52, the “MIC Bacillus Subtillis” value ([2]; ATCC 43223) was 3.00 µM (≈ 5.41 µg/mL) and the “Minimum Inhibitory Concentration Bacillus subtillis” value ([2]; in vitro MIC) was 5.4 µg/mL.
`NCCCC[C@H](NC(=O)[C@H](CCCCN)NC(=O)[C@H](CCCCN)NC(=O)[C@H](CCCCN)NC(=O)[C@@H]1Cc2ccccc2CN1C(=O)[C@H](CCCCN)NC(=O)CNC(=O)[C@@H]1C[C@@H]2CCCC[C@@H]2N1C(=O)[C@@H]1Cc2ccccc2CN1C(=O)[C@H](Cc1ccccc1)NC(=O)CNC(=O)[C@@H]1C[C@@H]2CCCC[C@@H]2N1C(=O)[C@@H]1Cc2ccccc2CN1C(=O)[C@H](CCCCN)NC(=O)CNC(=O)[C@@H]1C[C@@H]2CCCC[C@@H]2N1C(=O)[C@@H]1Cc2ccccc2CN1C(=O)[C@H](Cc1ccccc1)NC(=O)CN)C(N)=O` [FKAB-1Ga, NH2--GF-Tic-Oic-GK-Tic-Oic-GF-Tic-Oic-GK-Tic-KKKK-CONH2] (H-GF[Tic][Oic]GK[Tic][Oic]GF[Tic][Oic]GK[Tic]KKKK-NH2) was tested, and the “p(MIC) Salmonella typhimurium” value [3] was 5.52, the “MIC Salmonella typhimurium” value ([3]; ATCC 13311) was 3 µM (≈ 7.2 µg/mL) and the “% hemolysis 100/25 μM (first value)” value (red blood cells) was 33.4%/. For the same compound, the “% hemolysis 100/25 μM (second value)” value (red blood cells) was 14.3%, the “p(MIC) Staphylococcus aureus ME/GM/TC resistant” value [4] was 5.00 and the “Minimum Inhibitory Concentration Staphylococcus aureus ME/GM/TC resistant” value [4, 5] was 10 µM. For the same compound, the “Actual Bioactivity” value [4] was 5.000, the “Actual Bioactivity” value [1] was 5.000 and the “MIC Mycobacterium ranae” value ([1]; ATCC 110) was 10.00 µM (≈ 24 µg/mL). For the same compound, the “Minimum Inhibitory Concentration Mycobacterium ranae” value ([1]; ATCC 110) was 10 µM, the “p(MIC) Bacillus Subtillis” value [2] was 6.00 and the “MIC Bacillus Subtillis” value ([2]; ATCC 43223) was 1.00 µM (≈ 2.4 µg/mL).
In the case of `CC(=O)NCCCC(=O)N[C@@H](Cc1ccccc1)C(=O)N1Cc2ccccc2C[C@H]1C(=O)N1[C@H](C(=O)NCCCC(=O)N[C@@H](CCCCN)C(=O)N2Cc3ccccc3C[C@H]2C(=O)N2[C@H](C(=O)NCCCC(=O)N[C@@H](Cc3ccccc3)C(=O)N3Cc4ccccc4C[C@H]3C(=O)N3[C@H](C(=O)NCCCC(=O)N[C@@H](CCCCN)C(=O)N4Cc5ccccc5C[C@H]4C(=O)N[C@@H](CCCCN)C(=O)N[C@@H](CCCCN)C(=O)N[C@@H](CCCCN)C(=O)N[C@@H](CCCCN)C(=O)N[C@@H](CCCCN)C(N)=O)C[C@@H]4CCCC[C@@H]43)C[C@@H]3CCCC[C@@H]32)C[C@@H]2CCCC[C@@H]21` [FKAB-1Gd3, Ac-Gaba-F-Tic-Oic-Gaba-K-Tic-Oic-Gaba-F-Tic-Oic-Gaba-K-Tic-KKKKK-CONH2] (Ac-[GABA]F[Tic][Oic][GABA]K[Tic][Oic][GABA]F[Tic][Oic][GABA]K[Tic]KKKKK-NH2), the “MIC Salmonella typhimurium” value ([3]; ATCC 13311) is reported as 10 µM (≈ 26.8 µg/mL), the “Minimum Inhibitory Concentration Salmonella typhimurium” value ([3]; ATCC 13311) is reported as 10 µM and the “% hemolysis 100/25 μM (first value)” value (red blood cells) is reported as 29.7%/. For the same compound, the “% hemolysis 100/25 μM (second value)” value (red blood cells) was 10.5%, the “p(MIC) Staphylococcus aureus ME/GM/TC resistant” value [4] was 4.52 and the “Actual Bioactivity” value [4] was 4.520. For the same compound, the “Actual Bioactivity” value [1] was 5.520, the “Minimum Inhibitory Concentration Mycobacterium ranae” value [1] was 3 µM and the “MIC Mycobacterium ranae” value ([1]; ATCC 110) was 3.00 µM (≈ 8.04 µg/mL). For the same compound, the “selectivity for Mycobacterium ranae over Salmonella typhimurium” value ([1]; in vitro) was 3 fold, the “MIC Bacillus Subtillis” value ([2]; ATCC 43223) was 1.00 µM (≈ 2.68 µg/mL) and the “Minimum Inhibitory Concentration Bacillus subtillis” value ([2]; ATCC 43223) was 1 µM.

Reference: patent US20120197004A1, “NOVEL ANTI-MICROBIAL PEPTIDOMIMETIC COMPOUNDS AND METHODS TO CALCULATE ANTI-MICROBIAL ACTIVITY” (priority 2006, published 2012)
